From paper PMC12024264, “Frog Skin Peptides Hylin-a1, AR-23, and RV-23: Promising Tools Against Carbapenem-Resistant Escherichia coli and Klebsiella pneumoniae Infections” (Antibiotics, 2025) come the findings set out here.

One series relates to HaCaT cells. Briefly: MTT cytotoxicity assay on HaCaT keratinocytes. The series is classed as cell-based, human. The procedure:
To evaluate their safety profile, cytotoxicity assays were performed on HaCaT keratinocytes. Cells were exposed for 20 h to peptides at doses ranging from 0.39 to 100 μM.
Figure 1 Dose–response curves for the AMPs against HaCaT cell line and CC50 (reported in μM), HillSlope, and R^2 values were obtained by the fitting of the curves. The viability effect of Hylin-a1, AR-23, and RV-23 was analyzed on HaCaT cells. The cell monolayer was treated with serial dilutions of peptides for 20 h. Untreated cells were used as a positive control, while dimethyl sulfoxide (DMSO) was used as a negative control. HillSlope: The measure of the steepness of the dose–response curve. […] R^2 (coefficient of determination) indicates how well the model fits the data. Ranges from 0 to 1, with 1 representing a perfect fit.
The cytotoxic effect of peptides was examined using 3-(4,5 dimethylthiazol-2-yl)-2,5-diphenyltetrazolium bromide (MTT), as previously described. Cell viability, expressed as a percentage, was calculated in relation to the viability of untreated cells (+). DMSO was used as negative control (−). The human keratinocyte cell line HaCaT (Cell Lines Service, CLS-, Eppelheim, Germany) was used as a cellular model to evaluate the peptides’ cytotoxicity. HaCaT cells were grown in Dulbecco’s Modified Eagle Medium (DMEM) with 4.5 g/L of glucose (Microtech, Naples, Italy) supplemented with an antibiotic solution 100× (Himedia, Naples, Italy) and 10% Fetal Bovine Serum (FBS, Microtech).

A further series is described as follows: Serum stability assay. The series is classed as in vitro ADME, bovine. The conditions noted are these: 10% FBS. As to the method: The susceptibility of Hylin-a1, AR-23, and RV-23 to proteolytic degradation in serum was evaluated, following the protocol reported in Section 4.3.
Figure 6 AMP stability in serum. Stability profiles of Hylin-a1 (red line), AR-23 (gray line), and RV-23 (black line) are reported. All stability tests were performed at least in triplicate. LC-MS analyses were performed using an Agilent 1260 Infinity II LC/MSD system (Milan, Italy). The percentages of intact peptides after different time points of incubation in serum were determined by integrating RP-HPLC peaks from the chromatograms recorded at a wavelength of 210 nm. The test was performed in triplicate, and the data are presented as mean values, with error bars representing standard deviations.
Peptides were mixed with 10% FBS at a final concentration of 0.2 mg/mL and incubated in a water bath at 37 °C. […] Then, the mixture was diluted with 0.1% TFA in H2O (1:1). Samples were characterized using LC-MS on a C18 Aeris Peptide column (100 × 2.1 mm), applying a linear gradient from 5 to 80% solvent B (0.1% TFA in CH3CN) over solvent A (0.1% TFA in water) in 15 min at a flow rate of 0.2 mL/min. All stability tests were performed at least in triplicate. LC-MS analyses were performed using an Agilent 1260 Infinity II LC/MSD system (Milan, Italy).

The subject of a further series is E. coli 3140. The conditions noted are these: carbapenemase OXA-48 (class D), urine; microdilution, 37 °C, 20 h; N/D = no antibacterial activity detected. As to the method: (§1) Each strain was grown in Mueller Hinton Broth (MH Broth), and 5 × 10^5 CFU/mL was used to evaluate antibacterial activity. Clinical carbapenem-resistant K. pneumoniae and E. coli isolates were collected at the AOU of Virology and Microbiology of the University of Campania “Luigi Vanvitelli”.
(§2) The antimicrobial activity of Hylin-a1, AR-23, and RV-23 was investigated using a microdilution assay as reported by the National Committee on Clinical Laboratory Standards (NCCLS) guidelines against a broad spectrum of Gram-negative bacteria. […] In 96-well, the standardized bacterial inoculum (5 × 10^5 colony forming units, CFU/mL) was inoculated together with AMPs and incubated at 37 °C for 20 h. After the time of incubation, optical density (OD) was measured at TECAN, and data were expressed as a percentage of inhibition. In addition to assessing the MIC values, the bactericidal effect was also studied as reported elsewhere.

A further series concerns E. coli 1376. The conditions noted are these: carbapenemase NDM (class B), rectal swab, N/D = no antibacterial activity detected. The procedure:
as §1, §2

Another series relates to K. pneumoniae 1746. To be noted: carbapenemase VIM (class B), rectal swab; microdilution, 37 °C, 20 h; N/D = no antibacterial activity detected. As to the method: as §1, §2
For the next series, the system named is K. pneumoniae 1745. The conditions noted are these: carbapenemase KPC (class A), ulcer; microdilution, 37 °C, 20 h; N/D = no antibacterial activity detected. As to the method: as §1, §2
The test system of another series is K. pneumoniae 1711. The conditions noted are these: carbapenemase KPC (class A), rectal swab; microdilution, 37 °C, 20 h; N/D = no antibacterial activity detected. The procedure:
as §1, §2
Background: Broth dilution looks for growth in wells or tubes with falling amounts of substance.

In the next series the test system is E. coli 716. To be noted: carbapenemases IMP1, VIM, NDM (class B), urine, N/D = no antibacterial activity detected. As to the method:
as §1, §2

The subject of a further series is E. coli 1441. To be noted: carbapenemase KPC (class A), rectal swab; microdilution, 37 °C, 20 h; N/D = no antibacterial activity detected. As to the method: as §1, §2
In a further series the test system is E. coli 2267. The conditions noted are these: carbapenemase NDM (class B), rectal swab; microdilution, 37 °C, 20 h; N/D = no antibacterial activity detected. The procedure:
as §1, §2

Another series concerns K. pneumoniae ATCC 10031. As to the method:
(§3) The three peptides were tested for their antibacterial activity. […] As described in the Materials and Methods section, the antibacterial effect of peptides was investigated using a microdilution assay. Each concentration of AMPs was inoculated with bacteria in 96-well plates and incubated at 37 °C for 20 h. After that, MIC values were determined by analyzing absorbance and expressed as a percentage of inhibition. MBC was assessed by observing the colonies’ growth on agar plates, as described elsewhere.
as §1, §2

Another series deals with E. coli ATCC 25992. To be noted: microdilution (NCCLS), MH broth, 5 × 10^5 CFU/mL, 37 °C, 20 h, absorbance; 50 to 1.56 μM. The procedure:
as §3, §1, §2

Where no end group is shown, it is not given here.

As for AIGSILGALAKGLPTLISWIKNR-NH2 [AR-23], the “50% cytotoxic concentration (CC50)” value with HaCaT cells (HaCaT keratinocytes, 20 h exposure, 0.39 to 100 μM) was 50 µM. Besides, the “CC50 obtained by the fitting of the curves” value with HaCaT cells (HaCaT, 20 h, Figure 1) came to 52.25 µM. In the series “Serum stability assay” (0.2 mg/mL, 37 °C, RP-HPLC peaks at 210 nm, mean of triplicate, after the first 2 h up to 24 h), the “percentage of intact fragments, almost constant up to 24 h” value was “around 30%”. Also, in “Serum stability assay” (serum, peptide 0.2 mg/mL, 37 °C water bath, ethanol precipitation, LC-MS, RP-HPLC peak integration at 210 nm, at least triplicate), the half-life (as a rule, the time needed for the level to fall by half in the phase considered) was less than 2 h. Moreover, the MIC (usually the lowest concentration found to suppress growth) is 50 µM in the series on E. coli 3140; 25 µM in the series on E. coli 1376 (microdilution, 37 °C, 20 h); 25 µM in the series with K. pneumoniae 1746; 50 µM against K. pneumoniae 1745; 50 µM against K. pneumoniae 1711; 25 µM in the series on E. coli 716 (microdilution, 37 °C, 20 h). Besides, the MIC worked out at 25 µM in the series with E. coli 1441; 25 µM against E. coli 2267; 6.25 µM against K. pneumoniae ATCC 10031 (microdilution (NCCLS), MH broth, 5 × 10^5 CFU/mL, 37 °C, 20 h, absorbance, 50 to 1.56 μM); 25 µM with E. coli ATCC 25992. The MBC (usually the lowest tested concentration that kills the bacteria rather than only halting them) in the series with E. coli 1376 was determined as 50 µM; in the series on E. coli 716, 50 µM; in the series with K. pneumoniae ATCC 10031 (colonies' growth on agar plates after microdilution, N/D = not detected antibacterial activity) it was 25 µM.
